In patent publication US20260293894A1, “FUSED PYRROLIDINE-2-ONE HERBICIDAL COMPOUNDS” (SYNGENTA CROP PROTECTION AG, priority 2023, published 2026):

Legend:
Format in all cases: in vivo
Details in all cases: 1000 g/Ha, evaluated after 13 days, glasshouse
Setaria faberi (SETFA) [1] = experiment: Pre-emergence herbicidal activity, percentage damage to SETFA
Description: (§1) Seeds of a variety of test species are sown in standard soil in pots Amaranthus palmeri (AMAPA), Amaranthus retroflexus (AMARE), Setaria faberi (SETFA), Echinochloa crus-galli (ECHCG), Ipomoea hederacea (IPOHE),). After cultivation for one day (pre-emergence) or after 8 days cultivation (post-emergence) under controlled conditions in a glasshouse (at 24/160C, day/night; 14 hours light; 65% humidity), the plants are sprayed with an aqueous spray solution derived from the dissolution of the technical active ingredient in a small amount of acetone and a special solvent and emulsifier mixture referred to as IF50 (11.12% Emulsogen EL360 TM+44.44% N-methylpyrrolidone+44.44% Dowanol DPM glycol ether, which was then diluted to required concentration using 0.2% Genapol XO80 (CAS No. 9043-30-5) in water as the diluent. Compounds are applied at the rates stated. The test plants are then grown in a glasshouse under controlled conditions in a glasshouse (at 24/160C, day/night; 14 hours light; 65% humidity) and watered twice daily. After 13 days for pre and post-emergence, the test is evaluated for the percentage damage caused to the plant. The biological activities are shown in the following table on a five-point scale (5=81-100%; 4=61-80%; 3=41-60%; 2=21-40%; 1=0-20%; NT=not tested).

Setaria faberi (SETFA) [2] = experiment: Post-emergence herbicidal activity, percentage damage to SETFA
Description: as §1

[3] = system: Amaranthus palmeri (AMAPA); experiment: Pre-emergence herbicidal activity, percentage damage to AMAPA
Description: as §1

[4] = system: Amaranthus retroflexus (AMARE); experiment: Pre-emergence herbicidal activity, percentage damage to AMARE
Description: as §1

[5] = system: Amaranthus retroflexus (AMARE); experiment: Post-emergence herbicidal activity, percentage damage to AMARE
Description: as §1

[6] = system: Ipomoea hederacea (IPOHE); experiment: Pre-emergence herbicidal activity, percentage damage to IPOHE
Description: as §1

[7] = system: Amaranthus palmeri (AMAPA); experiment: Post-emergence herbicidal activity, percentage damage to AMAPA
Description: as §1

[8] = system: Ipomoea hederacea (IPOHE); experiment: Post-emergence herbicidal activity, percentage damage to IPOHE
Description: as §1

[9] = system: Echinochloa crus-galli (ECHCG); experiment: Pre-emergence herbicidal activity, percentage damage to ECHCG
Description: as §1

[10] = system: Echinochloa crus-galli (ECHCG); experiment: Post-emergence herbicidal activity, percentage damage to ECHCG
Description: as §1

SMILES | percentage damage caused to the plant (SETFA) (Setaria faberi (SETFA) [1]) | percentage damage caused to the plant (SETFA) (Setaria faberi (SETFA) [2]) | percentage damage caused to the plant (AMAPA) [3] | percentage damage caused to the plant (AMARE) [4] | percentage damage caused to the plant (AMARE) [5] | percentage damage caused to the plant (IPOHE) [6] | percentage damage caused to the plant (AMAPA) [7] | percentage damage caused to the plant (IPOHE) [8] | percentage damage caused to the plant (ECHCG) [9] | percentage damage caused to the plant (ECHCG) [10]
O=C(O)C[C@@H]1[C@@H]2C[C@@H]2C(=O)N1Cc1cccc(F)c1 (relative stereo) [A.64, 2-[(1R*,2R*,5S*)-3-[(3-fluorophenyl)methyl]-4-oxo-3-azabicyclo[3.1.0]hexan-2-yl]acetic acid] | 5 (81-100%) | 5 (81-100%) | 4 (61-80%) | 5 (81-100%) | 4 (61-80%) | 4 (61-80%) | 3 (41-60%) | 3 (41-60%) | 4 (61-80%) | 3 (41-60%)
O=C(O)C[C@@H]1[C@@H]2C[C@@H]2C(=O)N1Cc1ccccc1F (relative stereo) [A.61, 2-[(1R*,2R*,5S*)-3-[(2-fluorophenyl)methyl]-4-oxo-3-azabicyclo[3.1.0]hexan-2-yl]acetic acid] | 5 (81-100%) | 5 (81-100%) | 4 (61-80%) | 5 (81-100%) | 4 (61-80%) | 1 (0-20%) | 3 (41-60%) | 3 (41-60%) | 3 (41-60%) | 3 (41-60%)
O=C(O)C[C@@H]1[C@@H]2CCCC[C@@H]2C(=O)N1Cc1cccc(F)c1F (relative stereo) [E.01, 2-[(1R*,3aS*,7aR*)-2-[(2,3-difluorophenyl)methyl]-3-oxo-3a,4,5,6,7,7a-hexahydro-1H-isoindol-1-yl]acetic acid] | 1 (0-20%) | 1 (0-20%) | 3 (41-60%) | 3 (41-60%) | 1 (0-20%) |  | 1 (0-20%) | 1 (0-20%) | 2 (21-40%) | 1 (0-20%)
O=C(O)C[C@@H]1[C@@H]2C[C@@H]2C(=O)N1Cc1ccc(F)c(F)c1F (relative stereo) [Compound A.13, 2-[(1R*,2R*,5S*)-3-[(2,3,4-trifluorophenyl)methyl]-4-oxo-3-azabicyclo[3.1.0]hexan-2-yl]acetic acid] | 5 (81-100%) | 5 (81-100%) | 3 (41-60%) | 4 (61-80%) | 3 (41-60%) | 4 (61-80%) | 2 (21-40%) | 2 (21-40%) | 3 (41-60%) | 3 (41-60%)
O=C(O)C[C@@H]1[C@@H]2C[C@@H]2C(=O)N1Cc1ccc(Cl)cc1F (relative stereo) [A.76, 2-[(1R*,2R*,5S*)-3-[(2-fluoro-4-chloro)methyl]-4-oxo-3-azabicyclo[3.1.0]hexan-2-yl]acetic acid] | 3 (41-60%) | 3 (41-60%) | 3 (41-60%) | 1 (0-20%) | 1 (0-20%) | 4 (61-80%) | 1 (0-20%) | 2 (21-40%) | 1 (0-20%) | 1 (0-20%)
O=C(O)C[C@H]1[C@@H]2CCCC[C@@H]2C(=O)N1Cc1cccc(F)c1F (relative stereo) [E.04, 2-[(1S*,3aS*,7aR*)-2-[(2,3-difluorophenyl)methyl]-3-oxo-3a,4,5,6,7,7a-hexahydro-1H-isoindol-1-yl]acetic acid] | 3 (41-60%) | 1 (0-20%) | 4 (61-80%) | 4 (61-80%) | 1 (0-20%) | 1 (0-20%) | 1 (0-20%) | 1 (0-20%) | 1 (0-20%) | 1 (0-20%)
O=C(O)C[C@@H]1[C@@H]2C[C@@H]2C(=O)N1Cc1ccc(F)cc1 (relative stereo) [A.67, 2-[(1R*,2R*,5S*)-3-[(4-fluorophenyl)methyl]-4-oxo-3-azabicyclo[3.1.0]hexan-2-yl]acetic acid] | 3 (41-60%) | 4 (61-80%) | 4 (61-80%) | 3 (41-60%) | 1 (0-20%) | 4 (61-80%) | 3 (41-60%) | 2 (21-40%) | 3 (41-60%) | 2 (21-40%)
O=C(O)C[C@@H]1[C@@H]2C[C@@H]2C(=O)N1Cc1cccc(F)c1F (relative stereo) [A.01, 2-[(1R*,2R*,5S*)-3-[(2,3-difluorophenyl)methyl]-4-oxo-3-azabicyclo[3.1.0]hexan-2-yl]acetic acid] | 5 (81-100%) | 5 (81-100%) | 2 (21-40%) | 4 (61-80%) | 4 (61-80%) | 2 (21-40%) | 2 (21-40%) | 3 (41-60%) | 4 (61-80%) | 4 (61-80%)
O=C(O)C[C@@H]1[C@@H]2C[C@@H]2C(=O)N1Cc1cccc(Cl)c1 (relative stereo) [A.70, 2-[(1R*,2R*,5S*)-3-[(3-chlorophenyl)methyl]-4-oxo-3-azabicyclo[3.1.0]hexan-2-yl]acetic acid] | 5 (81-100%) | 4 (61-80%) | 1 (0-20%) | 2 (21-40%) | 1 (0-20%) | 1 (0-20%) | 3 (41-60%) | 1 (0-20%) | 4 (61-80%) | 3 (41-60%)
O=C(O)C[C@@H]1[C@@H]2C[C@@H]2C(=O)N1Cc1ccc(F)c(Cl)c1 (relative stereo) [A.82, 2-[(1R*,2R*,5S*)-3-[(3-chloro-4-fluoro)methyl]-4-oxo-3-azabicyclo[3.1.0]hexan-2-yl]acetic acid] | 4 (61-80%) | 4 (61-80%) | 2 (21-40%) | 2 (21-40%) | 2 (21-40%) | 1 (0-20%) | 1 (0-20%) | 2 (21-40%) | 1 (0-20%) | 1 (0-20%)
COC(=O)C[C@H]1[C@@H]2C[C@@H]2C(=O)N1Cc1cccc(F)c1F (relative stereo) [A.10, methyl 2-[(1R*,2S*,5S*)-3-[(2,3-difluorophenyl)methyl]-4-oxo-3-azabicyclo[3.1.0]hexan-2-yl]acetate] | 4 (61-80%) | 4 (61-80%) | 2 (21-40%) | 2 (21-40%) | 2 (21-40%) | 1 (0-20%) | 1 (0-20%) | 2 (21-40%) | 1 (0-20%) | 2 (21-40%)
